From ChEMBL document CHEMBL1147761, “Novel 1,3-dipropyl-8-(1-heteroarylmethyl-1H-pyrazol-4-yl)-xanthine derivatives as high affinity and selective A2B adenosine receptor antagonists” (Bioorg Med Chem Lett, 2006)

How the values were obtained:
[1] = target: Adenosine A2 receptor (Homo sapiens) (UniProt P29275+P29274); test: Selectivity of adenosine A2A receptor over adenosine A2B receptor; assay type: protein assay
[2] = target: Adenosine receptors; A2b & A3 (Homo sapiens) (UniProt P29275+P0DMS8); test: Selectivity of adenosine A3 receptor over adenosine A2B receptor; assay type: protein assay
[3] = target: Adenosine receptors; A1 & A2b (Homo sapiens) (UniProt P30542+P29275); test: Selectivity of adenosine A1 receptor over adenosine A2B receptor; assay type: protein assay
[4] = target: T1, Adenosine receptor A3 (Homo sapiens, UniProt P0DMS8); test: Displacement of [125I]AB-MECA from Adenosine A3 receptor expressed in CHO cells; assay type: cell-based
T1 sequence (P0DMS8 whole entry): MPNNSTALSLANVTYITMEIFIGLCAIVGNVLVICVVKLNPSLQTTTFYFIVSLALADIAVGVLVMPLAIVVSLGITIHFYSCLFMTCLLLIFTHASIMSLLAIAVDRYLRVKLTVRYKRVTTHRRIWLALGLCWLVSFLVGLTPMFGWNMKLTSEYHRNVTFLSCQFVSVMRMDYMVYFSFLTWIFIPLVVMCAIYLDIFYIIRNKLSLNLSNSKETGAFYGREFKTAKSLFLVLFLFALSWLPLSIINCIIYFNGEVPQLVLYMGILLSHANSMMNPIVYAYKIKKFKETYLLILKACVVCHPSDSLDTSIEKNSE

[5] = target: Adenosine receptor A2a (Homo sapiens, UniProt P29274); test: Displacement of [3H]ZM-241385 from Adenosine A2A receptor expressed in HEK cells; assay type: cell-based, HEK293
Sequence of Adenosine receptor A2a (P29274 whole entry): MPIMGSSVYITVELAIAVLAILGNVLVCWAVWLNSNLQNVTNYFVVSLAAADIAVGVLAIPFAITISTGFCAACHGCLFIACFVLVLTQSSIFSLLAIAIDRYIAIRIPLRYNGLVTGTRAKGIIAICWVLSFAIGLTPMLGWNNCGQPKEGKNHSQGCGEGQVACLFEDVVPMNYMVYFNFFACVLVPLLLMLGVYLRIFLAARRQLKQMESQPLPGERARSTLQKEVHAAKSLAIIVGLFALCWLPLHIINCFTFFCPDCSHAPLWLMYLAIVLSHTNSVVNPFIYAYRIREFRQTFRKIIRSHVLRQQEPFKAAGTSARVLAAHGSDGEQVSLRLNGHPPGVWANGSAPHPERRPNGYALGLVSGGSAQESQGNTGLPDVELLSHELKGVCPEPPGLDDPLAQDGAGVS

[6] = target: T2, Adenosine receptor A2b (Homo sapiens, UniProt P29275); test: Displacement of [3H]ZM-241385 from Adenosine A2B receptor expressed in HEK cells; assay type: cell-based, HEK293
T2 sequence (P29275 whole entry): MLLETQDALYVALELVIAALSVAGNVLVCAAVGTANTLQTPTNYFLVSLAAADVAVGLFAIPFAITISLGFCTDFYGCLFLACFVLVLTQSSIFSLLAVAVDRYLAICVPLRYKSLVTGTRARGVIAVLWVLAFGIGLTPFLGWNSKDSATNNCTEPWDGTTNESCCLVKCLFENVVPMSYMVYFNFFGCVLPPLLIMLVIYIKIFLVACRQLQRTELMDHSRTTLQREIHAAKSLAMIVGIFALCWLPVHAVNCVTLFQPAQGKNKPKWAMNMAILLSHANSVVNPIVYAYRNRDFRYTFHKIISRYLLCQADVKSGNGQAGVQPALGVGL

[7] = target: T3, Adenosine receptor A1 (Homo sapiens, UniProt P30542); test: Displacement of [3H]CPX from Adenosine A1 receptor expressed in CHO cells; assay type: cell-based
T3 sequence (P30542 whole entry): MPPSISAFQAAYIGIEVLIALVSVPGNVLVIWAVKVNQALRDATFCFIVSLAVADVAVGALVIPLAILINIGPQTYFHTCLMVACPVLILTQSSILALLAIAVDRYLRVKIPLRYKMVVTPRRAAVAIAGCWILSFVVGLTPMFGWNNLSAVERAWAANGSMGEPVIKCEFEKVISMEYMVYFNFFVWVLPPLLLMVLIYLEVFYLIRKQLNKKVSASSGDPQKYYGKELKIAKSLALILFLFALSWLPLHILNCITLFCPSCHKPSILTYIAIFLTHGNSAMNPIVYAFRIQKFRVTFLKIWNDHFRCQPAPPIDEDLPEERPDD

Sequence of Adenosine A2 receptor (Homo sapiens) (P29274 whole entry, looked up, one chain of several): as the sequence (P29274 whole entry) above

Row | Structure (SMILES) | Ratio Ki [1] | Ratio Ki [2] | Ratio Ki [3] | Ki [4] | Ki [5] | Ki [6] | Ki [7]
1 | CCCn1c(=O)c2nc(-c3cnn(Cc4nc(-c5ccc(OC)cc5)no4)c3)[nH]c2n(CCC)c1=O | > 47 | 14 | 28 | 1500 nM | > 5000 nM | 106 nM | 3000 nM
2 | CCCn1c(=O)c2nc(-c3cnn(Cc4cc(-c5ccccc5Cl)on4)c3)[nH]c2n(CCC)c1=O | 24 | 20 | > 54 |  |  |  | 
3 | CCCn1c(=O)c2nc(-c3cnn(Cc4nc(-c5cccc(OC)c5)no4)c3)[nH]c2n(CCC)c1=O | > 60 | 7 | 26 |  |  |  | 
4 | CCCn1c(=O)c2[nH]c(-c3cnn(Cc4cc(-c5ccccc5OC)on4)c3)nc2n(CCC)c1=O |  |  |  | 4900 nM | > 5000 nM | 195 nM | 3300 nM
5 | CCCn1c(=O)c2[nH]c(-c3cnn(Cc4noc(-c5ccc(C#N)cc5)n4)c3)nc2n(CCC)c1=O |  |  |  | 640 nM | > 5000 nM | 14 nM | 570 nM
6 | CCCn1c(=O)c2nc(-c3cnn(Cc4cc(-c5ccccc5C(F)(F)F)on4)c3)[nH]c2n(CCC)c1=O | > 41 | 34 | 30 | 4200 nM | > 5000 nM | 121 nM | 3700 nM
7 | CCCn1c(=O)c2nc(-c3cnn(Cc4noc(-c5ccc(C#N)cc5)n4)c3)[nH]c2n(CCC)c1=O | > 357 | 45 | 40 |  |  |  | 
8 | CCCn1c(=O)c2nc(-c3cnn(Cc4cc(-c5ccc(C(F)(F)F)cc5)on4)c3)[nH]c2n(CCC)c1=O | 35 | 25 | 48 |  |  |  | 
9 | CCCn1c(=O)c2nc(-c3cnn(Cc4nc(-c5ccccc5)no4)c3)[nH]c2n(CCC)c1=O | 1100 | 480 | 370 | 480 nM | 1100 nM | 1 nM | 370 nM
10 | CCCn1c(=O)c2nc(-c3cnn(Cc4noc(-c5cccc(OC)c5)n4)c3)[nH]c2n(CCC)c1=O | > 37 | 15 | 6 |  |  |  | 
11 | CCCn1c(=O)c2[nH]c(-c3cnn(Cc4nc(-c5cccc(C)c5)no4)c3)nc2n(CCC)c1=O |  |  |  | 970 nM | > 5000 nM | 128 nM | 1400 nM
12 | CCCn1c(=O)c2[nH]c(-c3cnn(Cc4nc(-c5ccc(C#N)cc5)no4)c3)nc2n(CCC)c1=O |  |  |  | 950 nM | > 5000 nM | 18 nM | 1300 nM
13 | CCCn1c(=O)c2nc(-c3cnn(Cc4cc(-c5ccc(OC)cc5)on4)c3)[nH]c2n(CCC)c1=O | > 79 | 48 | 31 |  |  |  | 
14 | CCCn1c(=O)c2[nH]c(-c3cnn(Cc4noc(-c5cccc(C(F)(F)F)c5)n4)c3)nc2n(CCC)c1=O |  |  |  | 1800 nM | > 5000 nM | 64 nM | > 6000 nM
15 | CCCn1c(=O)c2[nH]c(-c3cnn(Cc4cc(-c5ccc(C(F)(F)F)cc5)on4)c3)nc2n(CCC)c1=O |  |  |  | 1200 nM | 1700 nM | 48 nM | 2300 nM
16 | CCCn1c(=O)c2nc(-c3cnn(Cc4cc(-c5ccccc5OC)on4)c3)[nH]c2n(CCC)c1=O | > 25 | 24 | 16 |  |  |  | 
17 | CCCn1c(=O)c2[nH]c(-c3cnn(Cc4cc(-c5ccccc5Cl)on4)c3)nc2n(CCC)c1=O |  |  |  | 2300 nM | 2700 nM | 111 nM | > 6000 nM
18 | CCCn1c(=O)c2[nH]c(-c3cnn(Cc4nc(-c5cccc(OC)c5)no4)c3)nc2n(CCC)c1=O |  |  |  | 600 nM | > 5000 nM | 82 nM | 2200 nM

Further lines, results first:

Row | Ratio Ki [1] | Ratio Ki [2] | Ratio Ki [3] | Ki [4] | Ki [5] | Ki [6] | Ki [7] | Structure (SMILES)
19 | > 90 | 23 | 60 |  |  |  |  | CCCn1c(=O)c2nc(-c3cnn(Cc4nc(-c5ccc(C(F)(F)F)cc5)no4)c3)[nH]c2n(CCC)c1=O
20 |  |  |  | 410 nM | 1600 nM | 82 nM | 1900 nM | CCCn1c(=O)c2[nH]c(-c3cnn(Cc4nc(-c5ccccc5OC)no4)c3)nc2n(CCC)c1=O
21 | 19 | 5 | 23 |  |  |  |  | CCCn1c(=O)c2nc(-c3cnn(Cc4nc(-c5ccccc5OC)no4)c3)[nH]c2n(CCC)c1=O
22 | > 39 | 8 | 11 |  |  |  |  | CCCn1c(=O)c2nc(-c3cnn(Cc4nc(-c5cccc(C)c5)no4)c3)[nH]c2n(CCC)c1=O
23 | 65 | 9 | 16 |  |  |  |  | CCCn1c(=O)c2nc(-c3cnn(Cc4noc(-c5ccccc5Cl)n4)c3)[nH]c2n(CCC)c1=O
24 | > 78 | 27 | > 93 |  |  |  |  | CCCn1c(=O)c2nc(-c3cnn(Cc4noc(-c5cccc(C(F)(F)F)c5)n4)c3)[nH]c2n(CCC)c1=O
25 | 55 | 160 | 48 |  |  |  |  | CCCn1c(=O)c2nc(-c3cnn(Cc4nc(-c5ccc(C)cc5)no4)c3)[nH]c2n(CCC)c1=O
26 | > 277 | 53 | 70 |  |  |  |  | CCCn1c(=O)c2nc(-c3cnn(Cc4nc(-c5ccc(C#N)cc5)no4)c3)[nH]c2n(CCC)c1=O
27 | 30 | 128 | 107 | 1800 nM | 420 nM | 14 nM | 1500 nM | CCCn1c(=O)c2[nH]c(-c3cnn(Cc4cc(-c5ccccc5)on4)c3)nc2n(CCC)c1=O
28 |  |  |  | 2000 nM | > 5000 nM | 136 nM | 810 nM | CCCn1c(=O)c2[nH]c(-c3cnn(Cc4noc(-c5cccc(OC)c5)n4)c3)nc2n(CCC)c1=O
29 | > 50 | 6 | 19 |  |  |  |  | CCCn1c(=O)c2nc(-c3cnn(Cc4noc(-c5ccccc5C(F)(F)F)n4)c3)[nH]c2n(CCC)c1=O
30 |  |  |  | 1300 nM | > 5000 nM | 55 nM | 3300 nM | CCCn1c(=O)c2[nH]c(-c3cnn(Cc4nc(-c5ccc(C(F)(F)F)cc5)no4)c3)nc2n(CCC)c1=O
31 |  |  |  | 1200 nM | 1500 nM | 22 nM | 102 nM | CCCn1c(=O)c2[nH]c(-c3cnn(CC(=O)Nc4ccccc4Cl)c3)nc2n(CCC)c1=O
32 | > 40 | 19 | 32 | 2300 nM | > 5000 nM | 123 nM | 3900 nM | CCCn1c(=O)c2nc(-c3cnn(Cc4noc(-c5ccc(OC)cc5)n4)c3)[nH]c2n(CCC)c1=O
33 |  |  |  | 3300 nM | 1200 nM | 82 nM | 540 nM | CCCn1c(=O)c2[nH]c(-c3cnn(Cc4cc(-c5ccc(Cl)cc5)on4)c3)nc2n(CCC)c1=O
34 |  |  |  | 490 nM | > 5000 nM | 32 nM | 652 nM | CCCn1c(=O)c2[nH]c(-c3cnn(Cc4nc(-c5cccc(Cl)c5)no4)c3)nc2n(CCC)c1=O
35 |  |  |  | 8700 nM | 3000 nM | 54 nM | 2600 nM | CCCn1c(=O)c2[nH]c(-c3cnn(Cc4nc(-c5ccc(C)cc5)no4)c3)nc2n(CCC)c1=O
36 | > 156 | 15 | 20 |  |  |  |  | CCCn1c(=O)c2nc(-c3cnn(Cc4nc(-c5cccc(Cl)c5)no4)c3)[nH]c2n(CCC)c1=O
37 | 14 | 40 | 6 |  |  |  |  | CCCn1c(=O)c2nc(-c3cnn(Cc4cc(-c5ccc(Cl)cc5)on4)c3)[nH]c2n(CCC)c1=O
38 |  |  |  | 620 nM | > 5000 nM | 100 nM | 1900 nM | CCCn1c(=O)c2[nH]c(-c3cnn(Cc4noc(-c5ccccc5C(F)(F)F)n4)c3)nc2n(CCC)c1=O
39 | 68 | 54 | 5 |  |  |  |  | CCCn1c(=O)c2nc(-c3cnn(CC(=O)Nc4ccccc4Cl)c3)[nH]c2n(CCC)c1=O
40 |  |  |  | 3000 nM | > 5000 nM | 63 nM | 2000 nM | CCCn1c(=O)c2[nH]c(-c3cnn(Cc4cc(-c5ccc(OC)cc5)on4)c3)nc2n(CCC)c1=O
41 |  |  |  | 330 nM | 2500 nM | 38 nM | 630 nM | CCCn1c(=O)c2[nH]c(-c3cnn(Cc4noc(-c5ccccc5Cl)n4)c3)nc2n(CCC)c1=O
